Source: patent US6809091B1, “Substances capable of inducing apoptosis” (Takara Bio Inc., priority 1998, dated 2004)

How the values were obtained:
[1] = system: human promyelocytic leukemia HL-60; assay: MTT method: cell growth suppressing / apoptosis-inducing activity; assay type: cell-based; conditions: for apoptosis-inducing activity / cancer cell growth suppressing activity: HL-60, MTT method of Example 1, 48 hours; for apoptosis-inducing activity of the non-heated solution: HL-60, 48 hours, MTT method
Description: Heated and non-heated substances of each of them were sterilized by a membrane filter of 0.22 μm to prepare samples for the apoptosis-inducing activity. Those samples were diluted with aseptic distilled water to an extent of 2-, 4-, 8-, 16- and 32-fold, their activity for suppressing the cell growth to the human promyelocytic leukemia HL-60 was measured as follows and their intensity or the apoptosis-inducing activity was compared.
Thus, 10 μl of each of the diluted solutions or 10 μl of aseptic distilled water were placed in a well of a 96-well microtiter plate. Then 90 μl of an RPMI 1640 medium (manufactured by Nissui) containing 10% of fetal bovine serum (manufactured by Gibco) which contained 5000 HL-60 cells (ATCC CCL240) were added thereto and an incubation was carried out at 37° C. for 48 hours in the presence of 5% carbon dioxide gas. After observing the shape of the cells under an optical microscope, 10 μl of a phosphate-buffered aqueous saline solution containing 5 mg/ml of 3-(4,5-dimethylthiazol-2-yl)-2,5-diphenyltetrazolium bromide (MTT; manufactured by Sigma), an incubation was continued for four hours more and state of growth of cells and formation of formazan produced in the cells were observed under a microscope. Further, 100 μl of 2-propanol containing 0.04N HCl were added thereto followed by well stirring and the absorbance at 590 nm was measured and used as a degree of growth of cells (an MTT method).
The solvent of the fraction was appropriately evaporated to substitute with a 50% aqueous solution of ethanol and the activity for suppressing the growth of cancer cells was measured by an MTT method mentioned in Example 1 except that the sample was diluted to a two-fold series using a 50% aqueous solution of ethanol and 2 μl of each of the diluted solutions or 2 μl of a 50% aqueous solution of ethanol were placed in a well of a flat-bottom 96-well microplate. Time for incubation was 16 hours.

HL-60 cells [2] = assay: observation of apoptosis under an optical microscope; assay type: cell-based, human; conditions: HL-60, 24 hours
Description: (1) HL-60 cells (ATCC CCL-240) incubated at 37° C. in an RPMI 1640 medium (manufactured by BioWhittaker) containing 10% of fetal bovine serum (manufactured by JRH) treated at 56° C. for 30 minutes were suspended in an RPMI 1640 medium to make the concentration 2.5×10^5 cells/5 ml.
To 5 ml of this suspension were added 10 μl of 12.5 mM, 25 mM, 50 mM or 100 mM of a 70% ethanolic solution of 4,5-dihydroxy-2-pentenal prepared in Example 6-(1), 0.05 mM, 0.5 mM, 5 mM or 50 mM of a 70% ethanolic solution of 4-hydroxy-2-cyclopenten-1-[…] prepared in Example 6-(1), 5 mM, 10 mM or 20 mM of a 70% ethanolic solution of 4-(9-adeninyl)-2-cyclopenten-1-one prepared in Example 4-(4), 2.5 mM, 5 mM, 15 mM or 25 mM of a 70% ethanolic solution of 4-(9-guaninyl)-2-cyclopenten-1-one prepared in Example 4-(5), 75 mM, 150 mM or 300 mM of a 70% ethanolic solution of 1,5-epoxy-1-hydroxy-3-penten-2-one prepared in Example 5-(2) or 5 mM, 25 mM or 50 mM of a 70% ethanolic solution of 2-(trans-3,4-dihydroxy-1-butenyl)-4-(trans-2-formylvinyl)-1,3-dioxolane prepared in Example 6-(2) followed by incubating at 37° C. in the presence of 5% carbon dioxide gas for 24 hours.
Incidentally, such phenomena were not noted in the incubated cells to which […] of 70% ethanolic solution were added used as a control.

HL-60 cells [3] = assay: measurement of apoptosis cells using FACScan; assay type: cell-based, human; conditions: HL-60, 24 hours and 48 hours
Description: (2) HL-60 cells which were incubated on an RPMI 1640 medium containing 10% of fetal bovine serum processed at 56° C. for 30 minutes were suspended in an RPMI 1640 medium to make 2.5×10^5 cells/5 ml. […]

HL-60 cells [4] = assay: Trypan Blue staining, survival rate; assay type: cell-based; conditions: Homo sapiens, HL-60, 24 hours, concentration where survival rate becomes 50%, read-out: Survival Rate50
Description: (3) The cells which were incubated for 24 hours by the same manner as in Example 9-(2) were stained with 0.4% Trypan Blue and observed under an optical microscope, numbers of viable cells which were not stained and of dead cells which were stained in blue were measured, concentration (survival rate50) of each of the samples where survival rate becomes 50% was determined and the result is given in Table 1.

HL-60 cells [5] = assay: analysis of fragmentation of DNA; assay type: cell-based, human
Description: (2) HL-60 cells which were incubated on an RPMI 1640 medium containing 10% of fetal bovine serum processed at 56° C. for 30 minutes were suspended in an RPMI 1640 medium to make 2.5×10^5 cells/5 ml.
To 5 ml the suspension were added 10 μl of 12.5 mM, 25 mM, 50 mM or 100 mM of a 70% ethanolic solution of 4,5-dihydroxy-2-pentenal, 0.05 mM, 0.5 mM, 5 mM or 50 mM of a 70% ethanolic solution of 4-hydroxy-2-cyclopenten-1-one, 5 mM, 10 mM or 20 mM of a 70% ethanolic solution of 4-(9-adeninyl)-2-cyclopenten-1-one prepared in Example 4-(4), 2.5 mM, 5 mM, 15 mM or 25 mM of a 70% ethanolic solution of 4-(9-guaninyl)-2-cyclopenten-1-one prepared in Example 4-(5) 75 mM, 150 mM or 300 mM of a 70% ethanolic solution of 1,5-epoxy-1-hydroxy-3-penten-2-one prepared in Example 5-(2) or 5 mM, 25 mM or 50 mM of a 70% ethanolic solution of 2-(trans-3,4-dihydroxy-1-butenyl)-4-(trans-2-formylvinyl)-1,3-dioxolane prepared in Example 6-(2) followed by incubating at 37° C. in the presence of 5% of carbon dioxide gas for 24 hours and 48 hours and the resulting cells were subjected to a measurement of apoptosis cells using FACScan by a method mentioned in pages 129-130 of “Experimental Protocol Series—Apoptosis Experiment Protocol” which was an extra issue of “Saibo Kogaku (Cell Technology)” (published by Shujunsha in 1994) and also to a measurement of analysis of fragmentation of DNA by a method mentioned in page 61-63 of “Biomanual UP Series—New Experimental Methods for Apoptosis” (published by Yodosha in 1995).

In the case of `NC(CCC(=O)NC(CSC1CC(=O)CC1O)C(=O)NCC(=O)O)C(=O)O` (single isomer, unassigned) [peak 1], the “apoptosis-inducing activity / cancer cell growth suppressing activity” value [1] is reported as “noted”.

For `NC(CCC(=O)NC(CSC1CC(=O)CC1O)C(=O)NCC(=O)O)C(=O)O` (single isomer, unassigned) [peak 3], the “apoptosis-inducing activity / cancer cell growth suppressing activity” value [1] was “noted”.

For `O=C1C=CCOC1O` (centres unmarked) [1,5-epoxy-1-hydroxy-3-penten-2-one], the “final concentration at which aggregation of nuclei, reduction in size of the cells and formation of apoptic body were confirmed” value (HL-60 cells [2]) was no less than 625 µM, the “final concentration at which apoptosis cells were confirmed” value (HL-60 cells [3]) was no less than 600 µM and the IC50 (HL-60 cells [4]) was 438 µM.

For `O=CC[C@H](O)[C@H](O)CO` [2-deoxy-D-ribose], the “apoptosis-inducing activity of the non-heated solution” value [1] was “no apoptosis-inducing activity”.

For `O=C1C=CC(O)C1O` (centres unmarked) [4,5-dihydroxy-2-cyclopenten-1-one], the “cancer cell growth suppressing activity and apoptic body formation” value ([1]; HL-60, MTT method of Example 4-(2), sample in 50% ethanol, 16 hours) was “confirmed”.

For `Nc1ncnc2c1ncn2C1C=CC(=O)C1` (centres unmarked) [4-(9-adeninyl)-2-cyclopenten-1-one], the “fragmentation of DNA” value (HL-60 cells [5]; HL-60, 10 μM final concentration) was “confirmed”, the “fragmentation of DNA” value (HL-60 cells [5]; HL-60, 30 μM final concentration) was “confirmed” and the IC50 (HL-60 cells [4]) was 22.4 µM.

With `O=C[C@H](O)[C@@H](O)[C@H](O)CO` [D(+)-xylose] the “apoptosis-inducing activity of the non-heated solution” value [1] was “no apoptosis-inducing activity”.

In the case of `O=C[C@@H](O)[C@H](O)[C@H](O)CO` [D-(−)-arabinose], the “apoptosis-inducing activity of the non-heated solution” value [1] is reported as “no apoptosis-inducing activity”.

With `O=C[C@H](O)[C@@H](O)[C@@H](O)CO` [L(+)-arabinose] the “apoptosis-inducing activity of the non-heated solution” value [1] was “no apoptosis-inducing activity”.

With `O=C[C@H](O)[C@H](O)[C@H](O)CO` [non-heated aqueous solution of D-ribose, D-ribose] the “apoptosis-inducing activity of the non-heated solution” value [1] was “no apoptosis-inducing activity”.
